Results on seven molecules are retold here after US12128016B2, “Vanin-1 inhibitor” (EDUCATIONAL FOUNDATION OF OSAKA MEDICAL AND PHARMACEUTICAL …, priority 2021, dated 2024).

Test [1] concerns Vanin-1. The test is described as follows: In vivo measurement of Vanin-1 inhibitory activity in sera and kidney tissues using hamsters. To be noted: hamster, 10 mg/kg subcutaneous injection; for Vanin-1 activity in kidney tissue extracts 1 hour after administration / Vanin-1 activity in kidney tissue extracts 4 hours after administration: kidney tissue extract; for Vanin-1 activity in kidney tissue extracts 1 hour after administration: 1 hour (FIG. 5b); for Vanin-1 activity in kidney tissue extracts 4 hours after administration: 4 hours (FIG. 5b); for Vanin-1 activity in sera 1 hour after administration / Vanin-1 activity in sera 4 hours after administration: serum; for Vanin-1 activity in sera 1 hour after administration: 1 hour (FIG. 5a); for Vanin-1 activity in sera 4 hours after administration: 4 hours (FIG. 5a). The arrangement: species or system Syrian hamsters. Here is the method:
The pantotheine ketone derivatives obtained in Example 1 and Comparative Example 1 were used as a Vanin-1 inhibitor to measure Vanin-1 inhibitory activity in vivo as follows.
An assay buffer and substrate were the same as those used in the in vitro measurement of activity described above. Hamsters used were 6-week-old male Syrian hamsters purchased from Japan SLC.
The pantotheine ketone derivatives of Example 1 and Comparative Example 1 at a dose of 10 mg/kg were each administered by subcutaneous injection in the backs of different hamsters, and 1 hour and 4 hours after the administration, blood collection and kidney removal were performed under anesthesia. The blood and kidney of the normal hamsters were indicated as Normal. The blood was refrigerated overnight at 4° C. and then centrifuged at 3000 rpm for 20 minutes at 4° C., and the supernatant was used as serum. The kidney was homogenized in an assay buffer in an amount 10 times the tissue weight, and centrifuged at 8000 rpm for 30 minutes at 4° C., and the supernatant was used as a kidney tissue extract. Proteins in the kidney tissue were quantified by using a BCA protein assay (Thermo Fishers Scientific).
Vanin-1 inhibitory activity was measured in accordance with the following steps 1 to 7 of: • 1. introducing 80 μL of assay buffer in a 96-well black plate, • 2. adding 10 μL of serum or kidney tissue extract to the wells containing the assay buffer, • 3. adding 10 μL of 1 mM Pantothenate-AMC to the wells from the step [2.], • 4. measuring at Ex=390 nm and Ex=465 nm before incubation, • 5. incubating at 37° C. for 30 minutes, • 6. measuring at Ex=390 nm and Ex=465 nm, • 7. subtracting fluorescence after 0 minute incubation, from fluorescence value after 30 minutes incubation, and calculating enzyme unit (U) using as an index the amount of AMC produced per minute with respect to the fluorescence value of 40 μM AMC as a reference. The Vanin-1 activity in the kidney tissue extracts was further calculated to normalize by the protein concentration. (Results)

In test [2] the test system is vascular intimal thickening after aorta transplantation. To be noted: rat; 3 mg/mL in drinking water (Non-patent literature 2); cited from earlier work.
In test [3] the target is T1, Vanin-1 (Homo sapiens, UniProt O95497).
T1 construct: For use as human serum, “normal human serum” was purchased from KOHJIN BIO (product number: 12181211); tissue KOHJIN BIO 12181211; host or cells: normal human serum
T1 sequence (O95497 22-491): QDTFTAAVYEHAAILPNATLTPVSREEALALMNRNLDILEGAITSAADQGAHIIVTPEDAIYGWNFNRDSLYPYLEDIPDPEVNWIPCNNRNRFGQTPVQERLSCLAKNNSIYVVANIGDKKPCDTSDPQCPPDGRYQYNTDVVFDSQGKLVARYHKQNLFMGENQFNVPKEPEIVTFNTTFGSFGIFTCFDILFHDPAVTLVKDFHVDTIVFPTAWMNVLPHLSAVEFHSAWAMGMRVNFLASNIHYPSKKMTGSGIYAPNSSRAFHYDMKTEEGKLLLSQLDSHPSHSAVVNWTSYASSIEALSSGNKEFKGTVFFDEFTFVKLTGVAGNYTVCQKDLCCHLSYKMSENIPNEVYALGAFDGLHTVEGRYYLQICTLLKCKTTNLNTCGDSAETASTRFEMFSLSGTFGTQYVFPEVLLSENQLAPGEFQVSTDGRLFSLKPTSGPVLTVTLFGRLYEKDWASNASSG
Put plainly: In vitro measurement of Vanin-1 inhibitory activity, screening using human serum with Pantothenate-AMC substrate. It counts as biochemical. To be noted: for IC50: 37° C., 30 minutes incubation, Pantothenate-AMC; for Vanin-1 inhibitory activity relative to that of Comparative Example 1: ratio to Comparative Example 1. Here is the method: The pantotheine ketone derivatives obtained in Examples 1 to 5 and Comparative Examples 1 to 9 were used as a Vanin-1 inhibitor to measure Vanin-1 inhibitory activity in vitro as follows.
A 9 g/package phosphate buffer powder (1/15 molL^−1=66 mM, Wako Pure Chemical) was dissolved in 1 L of distilled water to produce an assay buffer. Pantothenate-AMC serving as a substrate was synthesized according to protocols as described in Analytical Biochemistry 2010; 399: 284-292. For use as human serum, “normal human serum” was purchased from KOHJIN BIO (product number: 12181211).
Vanin-1 inhibitory activity was measured in accordance with the following steps 1 to 8 of: • 1. introducing 79 μL of assay buffer in a 96-well black plate, • 2. adding 10 μL of human serum to the wells containing the assay buffer, • 3. adding 1 μL of each Vanin-1 inhibitor (10^−7 M to 10^−2 M in DMSO) or 1 μL of DMSO to the wells from the step [2.], • 4. adding 10 μL of 1 mM Pantothenate-AMC to the wells from the step [3.], • 5. measuring at Ex=390 nm and Ex=465 nm before incubation, • 6. incubating at 37° C. for 30 minutes, • 7. measuring at Ex=390 nm and Ex=465 nm, • 8. subtracting fluorescence after 0 minute incubation, from fluorescence after 30 minutes incubation, to express Vanin-1 inhibitory activity of each inhibitor in percent with respect to that of DMSO being 100%. (Results)

On to `CC(C)(CO)[C@@H](O)C(=O)NCCC(=O)Cc1ccccc1` [Comparative Example 1, reference compound], for which, in test [1], the “Vanin-1 activity in kidney tissue extracts 1 hour after administration” value is reported as “same as the normal value”, the “Vanin-1 activity in kidney tissue extracts 4 hours after administration” value is on record as “same as the normal value”, the “Vanin-1 activity in sera 1 hour after administration” value is recorded as “suppressed” and the “Vanin-1 activity in sera 4 hours after administration” value is recorded as “returned to normal value”. For the same molecule, in test [2], the “Effect on vascular intimal thickening after aorta transplantation” value was “suppressive effect on vascular intimal thickening”. In test [3], half-maximal inhibition (IC50) required 780 nM.

As for `CC(C)(CO)[C@@H](O)C(=O)NCCC(=O)Cc1ccc2ccccc2c1` [Comparative Example 6], the “Vanin-1 inhibitory activity in vitro (comparison in words, FIGS. 1 to 4)” value (“Vanin-1 inhibitory activity in vitro” below) in test [3] is recorded as “lower than that of Comparative Example 1”.

Turning to `CC(C)(CO)[C@@H](O)C(=O)NCCC(=O)Cc1cccc2ccccc12` [Comparative Example 7], the “Vanin-1 inhibitory activity in vitro” value in test [3] was “lower than that of Comparative Example 1”.

For the molecule `C/C(O)=C/C(=O)CCNC(=O)[C@H](O)C(C)(C)CO` [Comparative Example 8], in test [3], the “Vanin-1 inhibitory activity in vitro” value was “lower than that of Comparative Example 1”.

In the case of `C=C=CC(=O)CCNC(=O)[C@H](O)C(C)(C)CO` [Comparative Example 9], the “Vanin-1 inhibitory activity in vitro” value in test [3] is recorded as “lower than that of Comparative Example 1”.

Turning to `CC(C)(CO)[C@@H](O)C(=O)NCCC(=O)Cc1ccc(OC(F)(F)F)cc1` [Example 1, (R)-2,4-dihydroxy-3,3-dimethyl-N-[3-oxo-4-(4-trifluoromethoxyphenyl)butyl]butanamide], in test [1], the “Vanin-1 activity in kidney tissue extracts 1 hour after administration” value was “able to inhibit Vanin-1”, the “Vanin-1 activity in kidney tissue extracts 4 hours after administration” value was “returned to the normal value”, the “Vanin-1 activity in sera 1 hour after administration” value is “suppressed Vanin-1 activity lower than that of Comparative Example 1” and the “Vanin-1 activity in sera 4 hours after administration” value was “suppressed below the normal value”. In test [3], the IC50 was 35 nM; the “Vanin-1 inhibitory activity in vitro” value was “very high Vanin-1 inhibitory activity”; the “Vanin-1 inhibitory activity relative to that of Comparative Example 1” value is “about 20 times”.

In the case of `CC(C)(CO)[C@@H](O)C(=O)NCCC(=O)Cc1ccc(F)cc1` [Example 2], in test [3], the IC50 amounted to 120 nM; the “Vanin-1 inhibitory activity in vitro” value is “very high Vanin-1 inhibitory activity”; the “Vanin-1 inhibitory activity relative to that of Comparative Example 1” value is recorded as “about 6 times”.

The term IC50 denotes the concentration that gives 50% inhibition. Higher therefore signals lower potency.
